target: Factor D (Homo sapiens, UniProt P00746); test: Factor D esterolytic assay (Z-Lys-SBzl thioester substrate, DTNB, 405 nm); assay type: biochemical; settings: substrate Z-Lys-SBzl 1.29 mM, 100 mM HEPES, 500 mM NaCl, pH 7.5, 10% DMSO, tested a minimum of three times
Method: The IC50 value of a compound (i.e., the concentration of the compound that inhibits 50% of the enzymatic activity) was calculated according to the procedure reported in U.S. Pat. No. 6,653,340 B1, e.g., column 74 (incorporated by reference).
Specifically, the compounds were dissolved in a stock solution of DMSO at 10.0 or 100 mM. A portion of this stock solution was added to assay buffer in a final volume of 50 μL. Controls included buffer alone and enzyme solutions to which DMSO was added. Substrate was added to the reaction wells immediately or after incubation at room temperature. The reaction rates were measured spectrophotometrically by the generation of product at 405 nm for 600 sec. Background absorbance at 690 nm was measured and subtracted from the absorbance at 405 nm for each well.
The reaction rate for enzyme alone was compared to the rate of enzyme in the presence of inhibitor and the percent inhibition was calculated as shown below: Percent Inhibition=[Rate without inhibitor−Rate with inhibitor)/(Rate without inhibitor)]−100 Factor D Esterolytic Assay:
An established esterolytic assay for the measurement of Factor D activity and inhibition of Factor D activity was used (Kam, C. M.; McRae, B. J.; Harper, J. W.; Niemann, M. A.; Volanakis, J. E.; Powers, J. C. Human complement proteins D. C2, and B Active site mapping with peptide thioester substrates. J Biol. Chem. 1987, 262, 3444-3451). For this assay Z-Lys-SBzl, 1.29 mM (Kim, S.; Narayana, S. V. L; Volanakis, J. E. Mutational analysis of the substrate binding site of human complement Factor D. Biochemistry, 1994, 33, 14393-14399) was used as the substrate for Factor D ([…]). Hydrolysis of this compound by Factor D liberated a free sulfhydryl group which is then reacted with 5,5′-dithiobis(2-nitrobenzoic acid) producing an intense yellow color (Habeeb, A. F. S. A. Reaction of protein sulfhydryl groups with Ellman's Reagent. Methods in Enzymol. 1976, 25, 457-464). The assays were performed in 96 well microtiter plates and rates of hydrolysis were monitored at 405 nm on a Biotek Synergy H1 plate reader. Hydrolysis rates were reported as change in mOD/min. The assay was conducted in 100 mM HEPES, 500 mM NaCl, pH 7.5 containing 10% DMSO in a final volume of 50 μL per well.
An IC50, a compound concentration which inhibits 50% of the enzymatic activity, was calculated. Compounds in the examples were tested a minimum of three times.

Sequence of Factor D (P00746 26-253): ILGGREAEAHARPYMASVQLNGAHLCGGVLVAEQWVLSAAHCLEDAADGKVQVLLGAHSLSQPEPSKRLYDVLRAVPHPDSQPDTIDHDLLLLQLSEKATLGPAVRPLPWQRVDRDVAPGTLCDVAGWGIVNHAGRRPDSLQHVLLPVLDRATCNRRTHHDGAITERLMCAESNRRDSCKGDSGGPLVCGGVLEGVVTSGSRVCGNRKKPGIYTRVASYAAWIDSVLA

Compared with `Nc1ncnc2c1c(-c1cccc3cc[nH]c13)cn2CC(=O)N1C[C@H](F)C[C@H]1C(=O)NCc1cccc(Cl)c1F` [Compound 134b, (2S,4R)-1-(2-(4-amino-5-(1H-indol-7-yl)-7H-pyrrolo[2,3-d]pyrimidin-7-yl)acetyl)-N-(3-chloro-2-fluorobenzyl)-4-fluoropyrrolidine-2-carboxamide], `Cc1nc(N)c2cnn(CC(=O)N3C[C@H](F)C[C@H]3C(=O)NCc3cccc(Cl)c3F)c2n1` [Compound 142d, (2S,4R)-1-(2-(4-amino-6-methyl-1H-pyrazolo[3,4-d]pyrimidin-1-yl)acetyl)-N-(3-chloro-2-fluorobenzyl)-4-fluoropyrrolidine-2-carboxamide] is higher in IC50: < 0.1 µM for the first, > 1 µM for the second.

First: Cc1cc2c(N)ncnc2n1CC(=O)N1[C@@H]2C[C@@H]2C[C@H]1C(=O)Nc1cccc(Br)n1 [Compound 158e, (1R,3S,5R)-2-(2-(4-amino-6-methyl-7H-pyrrolo[2,3-d]pyrimidin-7-yl)acetyl)-N-(6-bromopyridin-2-yl)-2-azabicyclo[3.1.0]hexane-3-carboxamide]
Second: CC(=O)c1ccc2c(c1)c1c(N)ncnc1n2CC(=O)N1[C@@H]2C[C@@H]2C[C@H]1C(=O)Nc1cccc(Br)n1 [Compound 58c, (1R,3S,5R)-2-(2-(6-acetyl-4-amino-9H-pyrimido[4,5-b]indol-9-yl)acetyl)-N-(6-bromopyridin-2-yl)-2-azabicyclo[3.1.0]hexane-3-carboxamide]
The IC50 of the first is higher: 0.1 to 1 µM for the first, < 0.1 µM for the second.

First: COc1cccc2c1c1c(N)ncnc1n2CC(=O)N1[C@@H]2C[C@@H]2C[C@H]1C(=O)Nc1cccc(Br)n1 [Compound 57g, (1R,3S,5R)-2-(2-(4-amino-5-methoxy-9H-pyrimido[4,5-b]indol-9-yl)acetyl)-N-(6-bromopyridin-2-yl)-2-azabicyclo[3.1.0]hexane-3-carboxamide]
Second: Nc1ncnc2c1c1c(C(=O)O)cccc1n2CC(=O)N1[C@@H]2C[C@@H]2C[C@H]1C(=O)Nc1cccc(Br)n1 [Compound 224b, 4-amino-9-(2-((1R,3S,5R)-3-((6-bromopyridin-2-yl)carbamoyl)-2-azabicyclo[3.1.0]hexan-2-yl)-2-oxoethyl)-9H-pyrimido[4,5-b]indole-5-carboxylic acid]
The IC50 of the first is lower: < 0.1 µM for the first, > 1 µM for the second. The first is the more potent here.

`COC(=O)c1cc(OC)c2c(c1)c1c(N)ncnc1n2CC(=O)N1[C@@H]2C[C@@H]2C[C@H]1C(=O)Nc1cccc(Br)n1` [Compound 240g, methyl 4-amino-9-(2-((1R,3S,5R)-3-((6-bromopyridin-2-yl)carbamoyl)-2-azabicyclo[3.1.0]hexan-2-yl)-2-oxoethyl)-8-methoxy-9H-pyrimido[4,5-b]indole-6-carboxylate] and `CNC(=O)c1ccc2c(c1)c1c(N)ncnc1n2CC(=O)N1[C@@H]2C[C@@H]2C[C@H]1C(=O)Nc1cccc(Br)n1` [Compound 204a, 4-amino-9-(2-((1R,3S,5R)-3-((6-bromopyridin-2-yl)carbamoyl)-2-azabicyclo[3.1.0]hexan-2-yl)-2-oxoethyl)-N-methyl-9H-pyrimido[4,5-b]indole-6-carboxamide] cannot be ordered by IC50: < 0.1 µM for the first, < 0.1 µM for the second.

`Cc1cc(-c2ccc(C(F)(F)F)nc2)cc2c3c(N)ncnc3n(CC(=O)N3[C@@H]4C[C@@H]4C[C@H]3C(=O)Nc3cccc(Br)n3)c12` [Compound 356c, (1R,3S,5R)-2-(2-(4-amino-8-methyl-6-(6-(trifluoromethyl)pyridin-3-yl)-9H-pyrimido[4,5-b]indol-9-yl)acetyl)-N-(6-bromopyridin-2-yl)-2-azabicyclo[3.1.0]hexane-3-carboxamide] and `Nc1ncnc2c1c1ccc(-c3ccccc3)cc1n2CC(=O)N1[C@@H]2C[C@@H]2C[C@H]1C(=O)Nc1cccc(Br)n1` [Compound 227c, (1R,3S,5R)-2-(2-(4-amino-7-phenyl-9H-pyrimido[4,5-b]indol-9-yl)acetyl)-N-(6-bromopyridin-2-yl)-2-azabicyclo[3.1.0]hexane-3-carboxamide] cannot be ordered by IC50: < 0.1 µM for the first, < 0.1 µM for the second.

`NC(=O)c1ccc2c(c1)c1c(N)ncnc1n2CC(=O)N1[C@@H]2C[C@@H]2C[C@H]1C(=O)Nc1cccc(Br)n1` [Compound 60c, 4-amino-9-(2-((1R,3S,5R)-3-((6-bromopyridin-2-yl)carbamoyl)-2-azabicyclo[3.1.0]hexan-2-yl)-2-oxoethyl)-9H-pyrimido[4,5-b]indole-6-carboxamide] and `Nc1ncnc2c1c1ccccc1n2CC(=O)N1C[C@H](F)C[C@H]1C(=O)Nc1cccc(Br)n1` [Compound 19a, (2S,4R)-1-(2-(4-amino-9H-pyrimido[4,5-b]indol-9-yl)acetyl)-N-(6-bromopyridin-2-yl)-4-fluoropyrrolidine-2-carboxamide] cannot be ordered by IC50: < 0.1 µM for the first, < 0.1 µM for the second.

`Cc1ncc(NC(=O)[C@@H]2C[C@@]3(C)C[C@H]3N2C(=O)Cn2c3ncnc(N)c3c3cc(C(F)(F)F)cc(C)c32)nc1Br` [Compound 364d, (1R,3S,5R)-2-(2-(4-amino-8-methyl-6-(trifluoromethyl)-9H-pyrimido[4,5-b]indol-9-yl)acetyl)-N-(6-bromo-5-methylpyrazin-2-yl)-5-methyl-2-azabicyclo[3.1.0]hexane-3-carboxamide] and `Cc1cc(C(F)(F)F)cc2c3c(N)ncnc3n(CC(=O)N3C[C@H](F)C[C@H]3C(=O)Nc3cncc(Br)n3)c12` [Compound 321d, (2S,4R)-1-(2-(4-amino-8-methyl-6-(trifluoromethyl)-9H-pyrimido[4,5-b]indol-9-yl)acetyl)-N-(6-bromopyrazin-2-yl)-4-fluoropyrrolidine-2-carboxamide] cannot be ordered by IC50: < 0.1 µM for the first, < 0.1 µM for the second.

First: Nc1ncnc2c1c1ccccc1n2CC(=O)N1CCC[C@H]1C(=O)Nc1cccc(Br)n1 [Compound 13b, (S)-1-(2-(4-amino-9H-pyrimido[4,5-b]indol-9-yl)acetyl)-N-(6-bromopyridin-2-yl)pyrrolidine-2-carboxamide]
Second: Nc1ncnc2c1cnn2CC(=O)N1CCC[C@H]1C(=O)Nc1cccc(Br)n1 [Compound 77b, (S)-1-(2-(4-amino-1H-pyrazolo[3,4-d]pyrimidin-1-yl)acetyl)-N-(6-bromopyridin-2-yl)pyrrolidine-2-carboxamide]
The IC50 of the first is lower: 0.1 to 1 µM for the first, > 1 µM for the second. The first is the more potent here.

Compared with `Nc1ncnn2c(CC(=O)N3C[C@H](F)C[C@H]3C(=O)Nc3cccc(Br)n3)ccc12` [Compound 69a, (2S,4R)-1-(2-(4-aminopyrrolo[2,1-f][1,2,4]triazin-7-yl)acetyl)-N-(6-bromopyridin-2-yl)-4-fluoropyrrolidine-2-carboxamide], `CNc1ncnc2c1cnn2CC(=O)N1[C@@H]2C[C@@H]2C[C@H]1C(=O)Nc1cccc(Br)n1` [Compound 82a, (1R,3S,5R)—N-(6-bromopyridin-2-yl)-2-(2-(4-(methylamino)-1H-pyrazolo[3,4-d]pyrimidin-1-yl)acetyl)-2-azabicyclo[3.1.0]hexane-3-carboxamide] is higher in IC50: 0.1 to 1 µM for the first, > 1 µM for the second. The first is the more potent here.

First: Nc1ncnc2c1ncn2CC(=O)N1[C@@H]2C[C@@H]2C[C@H]1C(=O)NCCOC(F)(F)F [Compound 99b, (1R,3S,5R)-2-(2-(6-amino-9H-purin-9-yl)acetyl)-N-(2-(trifluoromethoxy)ethyl)-2-azabicyclo[3.1.0]hexane-3-carboxamide]
Second: Cc1cc(C(F)(F)F)cc2c3c(N)ncnc3n(CC(=O)N3CCC[C@H]3C(=O)Nc3cccc(Br)n3)c12 [Compound 306a, (S)-1-(2-(4-amino-8-methyl-6-(trifluoromethyl)-9H-pyrimido[4,5-b]indol-9-yl)acetyl)-N-(6-bromopyridin-2-yl)pyrrolidine-2-carboxamide]
The IC50 of the first is higher: > 1 µM for the first, < 0.1 µM for the second. The second is the more potent here.

`Cc1ccc2c(c1)c1c(N)ncnc1n2CC(=O)N1[C@H](C(=O)Nc2nc(Br)ccc2C)C[C@@]2(C)C[C@@H]12` [Compound 10b, (1R,3S,5R)-2-(2-(4-amino-6-methyl-9H-pyrimido[4,5-b]indol-9-yl)acetyl)-N-(6-bromo-3-methylpyridin-2-yl)-5-methyl-2-azabicyclo[3.1.0]hexane-3-carboxamide] and `C[C@@]12C[C@@H](C(=O)Nc3cccc(Br)n3)N(C(=O)Cn3c4ccc(C5CCCC5)cc4c4c(N)ncnc43)[C@@H]1C2` [Compound 338e, (1R,3S,5R)-2-(2-(4-amino-6-cyclopentyl-9H-pyrimido[4,5-b]indol-9-yl)acetyl)-N-(6-bromopyridin-2-yl)-5-methyl-2-azabicyclo[3.1.0]hexane-3-carboxamide] cannot be ordered by IC50: < 0.1 µM for the first, < 0.1 µM for the second.

With `Cc1cc(-c2ccccc2)cc2c3c(N)ncnc3n(CC(=O)N3[C@H](C(=O)Nc4cccc(Br)n4)C[C@@]4(C)C[C@@H]34)c12` [Compound 230a, (1R,3S,5R)-2-(2-(4-amino-8-methyl-6-phenyl-9H-pyrimido[4,5-b]indol-9-yl)acetyl)-N-(6-bromopyridin-2-yl)-5-methyl-2-azabicyclo[3.1.0]hexane-3-carboxamide] the IC50 was < 0.1 µM.
